Data set [1] relates to L. donovani intracellular amastigotes infecting THP-1 macrophages. In words: GSK intramacrophage L. donovani assay (LD AMMAC, inMac; Assay Conditions C). In kind it is cell-based. The conditions noted are these: Leishmania donovani, THP-1. An outline of the steps: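 L. donovani amastigotes within THP-1 macrophages; EC50 based on average intracellular amastigotes per infected cell (AMMAC). Infected-cell percentage (INFCELL) and host-cell number (MAC) also read, the latter as toxicity output.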

Data set [2] relates to L. donovani intracellular amastigotes in B10R cells. In words: UCSD L. donovani infection assay (Assay Conditions D). In kind it is cell-based. The conditions noted are these: Leishmania donovani; for EC50: average of two biological replicates, read-out: L. donovani EC50 (UCSD assay). An outline of the steps: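 B10R cells (300/well) infected with stationary-phase L. donovani WT promastigotes at 20 parasites/cell in DMEM high-glucose, 5% FBS, with compounds 72 h at 37° C., 5% CO2. Formaldehyde-fixed, DAPI-stained, imaged by high-content microscopy; 10-point 2-fold dilutions (screen at 10 μM) gave EC50 and host CC50.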

A short description of data set [3]: Kinetic aqueous solubility by CAD. In kind it is physicochemical. The conditions noted are these: aqueous medium, kinetic from dmso stock, high-throughput CAD. The method, then:
Solubility of compounds using ChemiLuminescent Nitrogen Detection (CLND) was measured as described. Solubility of compounds using Charged Aerosol Detection (CAD) was measured as described. Solubility of solid compounds in Fasted Simulated Intestinal Fluid (FaSSIF) was measured as described.

A further data set concerns the target human serum albumin (Homo sapiens, UniProt P02768). As to the kind of experiment: Human serum albumin (HSA) binding, chromatographic. In kind it is in vitro ADME. Here is the method: The percentage of compound bound to human serum albumin was measured using a chromatographic method as described. Briefly, each compound was assayed on an immobilized HSA column and gradient retention times measured, with chromatographic peak detection by UV. Each retention time was then converted to a % HSA bound value using a calibration set of compounds with a known % HSA binding.

Data set [4] is described as follows: Property forecast index (PFI = ChromLogD7.4 + aromatic rings). In kind it is physicochemical.
Data set [5] is described as follows: UCSD infection assay, host cell cytotoxicity (CC50). The conditions noted are these: host macrophages infected with L. donovani; cytotoxicity against host macrophages. In kind it is cell-based.

Molecules are shown by their SMILES. Values after ≈ are worked out from the molar mass of the structure shown.

human serum albumin, sequence (P02768 25-609): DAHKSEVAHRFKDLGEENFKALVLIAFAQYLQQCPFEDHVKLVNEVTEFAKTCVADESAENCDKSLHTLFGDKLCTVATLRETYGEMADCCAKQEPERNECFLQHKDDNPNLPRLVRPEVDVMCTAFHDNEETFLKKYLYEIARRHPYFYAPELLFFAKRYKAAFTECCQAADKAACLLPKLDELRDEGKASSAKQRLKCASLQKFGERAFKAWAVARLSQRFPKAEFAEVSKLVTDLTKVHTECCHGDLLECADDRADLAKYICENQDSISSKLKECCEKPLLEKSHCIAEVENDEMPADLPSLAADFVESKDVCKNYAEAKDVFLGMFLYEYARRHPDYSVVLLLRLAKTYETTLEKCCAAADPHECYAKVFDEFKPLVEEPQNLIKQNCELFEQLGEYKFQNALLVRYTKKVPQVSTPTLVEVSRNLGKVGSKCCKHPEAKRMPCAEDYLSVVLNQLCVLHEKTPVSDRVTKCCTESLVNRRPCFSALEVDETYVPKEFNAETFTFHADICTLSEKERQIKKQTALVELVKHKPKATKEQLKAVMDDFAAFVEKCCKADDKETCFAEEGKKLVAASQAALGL

Take `COc1ccccc1C1c2c(CC(C)C)n[nH]c2C(=O)N1c1ccc(N(C)C)cc1` (stereo not shown) [Compound 80, 5-(4-(dimethylamino)phenyl)-3-isobutyl-4-(2-methoxyphenyl)-4,5-dihydropyrrolo[3,4-c]pyrazol-6(1H)-one]: the values for the IC50 in data set [1] and in data set [2] were 200 nM and 100 nM, respectively. For the same compound, the EC50 (as a rule, the concentration at which the effect is half-maximal) in data set [2] was 70 nM. Also, the solubility (as a rule, the concentration that dissolves in the medium under given conditions) in data set [3] was 66 µM (≈ 26.7 µg/mL). The “HSA Binding” value on human serum albumin was found to be 95.7%. Further, the PFI in data set [4] is 8.6. In addition, the midpoint of cytotoxicity in data set [5], the CC50 at 72 h, lay at 3450 nM.
For the compound `Cc1cc(F)ccc1C1c2c(CC(C)C)n[nH]c2C(=O)N1c1ccc(N(C)C)cc1` (stereo not shown) [Compound 81, 5-(4-(dimethylamino)phenyl)-4-(4-fluoro-2-methylphenyl)-3-isobutyl-4,5-dihydropyrrolo[3,4-c]pyrazol-6(1H)-one], the IC50 in data set [1] and in data set [2] was 100 nM throughout. In addition, in data set [2], the EC50 was 110 nM. The concentration in solution in data set [3] (solubility) was 27 µM (≈ 11 µg/mL). Further, the “HSA Binding” value at human serum albumin is 96.5%. The PFI in data set [4] is given as 9.1. Moreover, the cytotoxic concentration (CC50) – broadly, the concentration that lowers cell viability or growth by half – at 72 h in data set [5] amounted to 7510 nM.
On to `COc1cc(F)ccc1C1c2c(CC(C)C)n[nH]c2C(=O)N1c1ccc(N(C)C)cc1` (stereo not shown) [Compound 82, 5-(4-(dimethylamino)phenyl)-4-(4-fluoro-2-methoxyphenyl)-3-isobutyl-4,5-dihydropyrrolo[3,4-c]pyrazol-6(1H)-one], for which the IC50 (as a rule, the concentration that gives 50% inhibition) in data set [1] is 4000 nM. Also, the concentration for a half-maximal effect (EC50) in data set [2] was found to be 40 nM. Also, in data set [3], the solubility was found to be 45 µM (≈ 19 µg/mL). For the same compound, the “HSA Binding” value at human serum albumin is listed as 97.1%. The PFI in data set [4] is 8.8. It took 8500 nM to reach half-maximal cytotoxicity in data set [5] (CC50 at 72 h).
`COc1ccc(N2C(=O)c3[nH]nc(CC(C)C)c3C2c2ccccc2OC)cn1` (stereo not shown) [Compound 85, 3-isobutyl-4-(2-methoxyphenyl)-5-(6-methoxypyridin-3-yl)-4,5-dihydropyrrolo[3,4-c]pyrazol-6(1H)-one]: the IC50 in data set [1] came out at 7900 nM. In addition, in data set [2], the IC50 is 1100 nM and the EC50 stood at 1110 nM. Moreover, the solubility in data set [3] is 176 µM (≈ 69.1 µg/mL). The “HSA Binding” value on human serum albumin came to 93.9%. For the same compound, in data set [4], the PFI is 8.0. The compound also had a CC50 at 72 h in data set [5] greater than 20000 nM.
As for `Cc1cc(F)ccc1C1c2c(CC(C)C)n[nH]c2C(=O)N1c1ccc2ncnn2c1` (stereo not shown) [Compound 89, 5-([1,2,4]triazolo[1,5-a]pyridin-6-yl)-4-(4-fluoro-2-methylphenyl)-3-isobutyl-4,5-dihydropyrrolo[3,4-c]pyrazol-6(1H)-one], in data set [1], it took 1600 nM to reach half-maximal inhibition (IC50). Further, in data set [2], the IC50 amounted to 900 nM and the EC50 is 870 nM. This compound registered a solubility in data set [3] of less than 1 µM. At human serum albumin, the “HSA Binding” value was found to be 93.2%. Also, the PFI in data set [4] was determined as 8.1. In data set [5], this compound gave a CC50 at 72 h greater than 20000 nM.
